This is an account of results in BindingDB's records for doi:10.1016/j.bioorg.2015.09.004 (Universiti Teknologi Mara, 2015).

The target in the assay is Alpha-glucosidase MAL12 (Saccharomyces cerevisiae (strain ATCC 204508 / S288c), UniProt P53341). The experiment in a line: Baker's Yeast alpha-Glucosidase Inhibition Assay. The settings on record: pH 6.8; 37 °C. The procedure: The enzyme inhibition was evaluated according to the method previously reported by Taha et al. with slight modification. Various concentration of test compounds (10 uL) were dissolved in DMSO (ranging from 200 to 6.25 ug/mL) and premixed with 95 uL of 50 mM phosphate buffer (pH 6.8). Then, 25 uL of enzyme (0.0625 U/mL) in phosphate buffer saline was added into each well and the plate was incubated at 37 °C for 10 min. Afterward, 25 uL of PNPG in phosphate buffer saline (5 mM) were added and pre-read of the plate was taken by using a microplate reader (Spectrostar Nano BMG Labtech, Germany). The reaction mixture was then incubated at 37 °C for 30 min and change in absorbance at 405 nm was monitored up to 30 min. For negative control, the test samples were replaced with 10 uL of DMSO and acarbose was used as positive control. All experiments were triplicated and the results were expressed as the mean +/- S.E.M of three determinations.
Sequence of Alpha-glucosidase MAL12 (P53341 whole entry): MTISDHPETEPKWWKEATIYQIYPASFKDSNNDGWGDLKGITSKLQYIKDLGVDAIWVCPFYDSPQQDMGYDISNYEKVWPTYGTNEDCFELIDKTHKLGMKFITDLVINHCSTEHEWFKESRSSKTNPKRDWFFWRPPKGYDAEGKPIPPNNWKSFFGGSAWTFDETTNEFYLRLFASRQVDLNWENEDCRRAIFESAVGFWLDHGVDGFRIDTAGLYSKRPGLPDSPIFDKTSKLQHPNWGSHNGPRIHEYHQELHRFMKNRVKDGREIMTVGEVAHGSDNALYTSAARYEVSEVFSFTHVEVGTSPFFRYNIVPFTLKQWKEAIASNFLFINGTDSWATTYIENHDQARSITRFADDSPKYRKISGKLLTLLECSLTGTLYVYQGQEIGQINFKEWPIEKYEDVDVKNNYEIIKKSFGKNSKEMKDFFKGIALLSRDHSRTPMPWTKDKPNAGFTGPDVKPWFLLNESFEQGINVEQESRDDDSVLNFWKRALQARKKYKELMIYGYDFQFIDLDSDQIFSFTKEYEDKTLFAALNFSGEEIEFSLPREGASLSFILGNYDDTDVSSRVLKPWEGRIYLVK
In the case of `O=c1oc2ccccc2c(O)c1C(c1ccc(NC(=S)Nc2ccccc2Br)cc1)c1c(O)c2ccccc2oc1=O` [1-(4-(bis(4-Hydroxy-2-oxo-2H-chromen-3-yl)methyl)phenyl)-3-(2-bromophenyl)-thiourea (1)], the IC50 worked out at 37.4 µM. With `O=c1oc2ccccc2c(O)c1C(c1ccc(NC(=S)Nc2ccccc2F)cc1)c1c(O)c2ccccc2oc1=O` [1-(4-(bis(4-Hydroxy-2-oxo-2H-chromen-3-yl)methyl)phenyl)-3-(2-fluorophenyl)-thiourea (7)] the figure was 91.3 µM; with `O=c1oc2ccccc2c(O)c1C(c1ccc(NC(=S)Nc2cccc(Br)c2)cc1)c1c(O)c2ccccc2oc1=O` [1-(4-(bis(4-Hydroxy-2-oxo-2H-chromen-3-yl)methyl)phenyl)-3-(3-bromophenyl)-thiourea (2)], 35.9 µM; with `O=c1oc2ccccc2c(O)c1C(c1ccc(NC(=S)Nc2cccc(F)c2)cc1)c1c(O)c2ccccc2oc1=O` [1-(4-(bis(4-Hydroxy-2-oxo-2H-chromen-3-yl)methyl)phenyl)-3-(3-fluorophenyl)-thiourea (8)], 55.1 µM. With `O=c1oc2ccccc2c(O)c1C(c1ccc(NC(=S)Nc2cccc([N+](=O)[O-])c2)cc1)c1c(O)c2ccccc2oc1=O` [1-(4-(bis(4-Hydroxy-2-oxo-2H-chromen-3-yl)methyl)phenyl)-3-(3-nitrophenyl)-thiourea (17)] the figure was 51 µM; with `O=c1oc2ccccc2c(O)c1C(c1ccc(NC(=S)Nc2ccc(Br)cc2)cc1)c1c(O)c2ccccc2oc1=O` [1-(4-(bis(4-Hydroxy-2-oxo-2H-chromen-3-yl)methyl)phenyl)-3-(4-bromophenyl)-thiourea (3)], 39 µM; with `O=c1oc2ccccc2c(O)c1C(c1ccc(NC(=S)Nc2ccc(F)cc2)cc1)c1c(O)c2ccccc2oc1=O` [1-(4-(bis(4-Hydroxy-2-oxo-2H-chromen-3-yl)methyl)phenyl)-3-(4-fluorophenyl)-thiourea (9)], 53.4 µM. With `O=c1oc2ccccc2c(O)c1C(c1ccc(NC(=S)Nc2ccc([N+](=O)[O-])cc2)cc1)c1c(O)c2ccccc2oc1=O` [1-(4-(bis(4-Hydroxy-2-oxo-2H-chromen-3-yl)methyl)phenyl)-3-(4-nitrophenyl) thiourea (18)] the figure was 24.7 µM.

As usually defined, the IC50 is the concentration needed to halve the response being measured. Higher therefore signals weaker potency in that assay.
